# Assay results reported in patent US6413913B1, “Thiono-thiochroman and -dihydrobenzothiophene compounds as herbicidal agents” (BASF Corporation, priority 1999, dated 2002).
# How the values were obtained:
# [1] = tested on: IPOHE (Morningglory, Ivyleaf); experiment: Preemergence herbicidal evaluation; format: in vivo, Ipomoea hederacea, (L) Jacq.; conditions: rated about 2-4 weeks after treatment, scale 0-9
# Source text: (§1) In these tests, seeds of a variety of monocotyledonous and dicotyledonous plants are separately mixed with potting soil and planted on top of approximately one inch of soil in separate pint cups. After planting, the cups are sprayed with the selected aqueous acetone solution containing test compound in sufficient quantity to provide the equivalent of about 0.0125 to 0.800 kg per hectare of test compound per cup. The treated cups are then placed on greenhouse benches, watered and cared for in accordance with conventional greenhouse procedures. Approximately two—four weeks after treatment, the tests are terminated and each cup is examined and rated according to the rating system provided in Example 6.
# PANDI (Panicum, Fall) [2] = experiment: Postemergence herbicidal evaluation; format: in vivo, Panicum dichotomiflorum, Michx.; conditions: rated about 2-3 weeks after treatment, scale 0-9, averaged
# Procedure: (§2) Seedling plants are grown in jiffy flats for about two weeks. The test compounds are dispersed in 80/20 (v/v) acetone/water mixtures containing 1.0% SUN-IT® II, a methylated seed oil, in sufficient quantities to provide the equivalent of about 0.006 kg/ha to 0.800 kg/ha of active compound when applied to the plants through a spray nozzle operating at 40 psi for a predetermined time. After spraying, the plants are placed on greenhouse benches and are cared for in accordance with conventional greenhouse procedures. Approximately two—three weeks after treatment, the seedling plants are examined and rated according to the rating system set forth below. Where more than one test is involved for a given compound, the data are averaged.
# ABUTH (Velvetleaf) [3] = experiment: Preemergence herbicidal evaluation; format: in vivo, Abutilon theophrasti, Medic.; conditions: rated about 2-4 weeks after treatment, scale 0-9
# Source text: as §1
# ABUTH (Velvetleaf) [4] = experiment: Postemergence herbicidal evaluation; format: in vivo, Abutilon theophrasti, Medic.; conditions: rated about 2-3 weeks after treatment, scale 0-9, averaged
# Procedure: as §2
# [5] = tested on: IPOHE (Morningglory, Ivyleaf); experiment: Postemergence herbicidal evaluation; format: in vivo, Ipomoea hederacea, (L) Jacq.; conditions: rated about 2-3 weeks after treatment, scale 0-9, averaged
# Procedure: as §2
# AMBEL (Ragweed, Common) [6] = experiment: Preemergence herbicidal evaluation; format: in vivo, Ambrosia artemisifolia, L.; conditions: rated about 2-4 weeks after treatment, scale 0-9
# Source text: as §1
# PANDI (Panicum, Fall) [7] = experiment: Preemergence herbicidal evaluation; format: in vivo, Panicum dichotomiflorum, Michx.; conditions: rated about 2-4 weeks after treatment, scale 0-9
# Source text: as §1
# ZEAMX (Corn, Field) [8] = experiment: Preemergence herbicidal evaluation (crop); format: in vivo, Zea mays, L.
# Source text: as §1
# AMBEL (Ragweed, Common) [9] = experiment: Postemergence herbicidal evaluation; format: in vivo, Ambrosia artemisifolia, L.; conditions: rated about 2-3 weeks after treatment, scale 0-9, averaged
# Procedure: as §2
# ZEAMX (Corn, Field) [10] = experiment: Postemergence herbicidal evaluation (crop); format: in vivo, Zea mays, L.; conditions: rated about 2-3 weeks after treatment, scale 0-9, averaged
# Procedure: as §2
# SETVI (Foxtail, Green) [11] = experiment: Preemergence herbicidal evaluation; format: in vivo, Setaria viridis, (L.) Beau; conditions: rated about 2-4 weeks after treatment, scale 0-9
# Source text: as §1
# SETVI (Foxtail, Green) [12] = experiment: Postemergence herbicidal evaluation; format: in vivo, Setaria viridis, (L.) Beau; conditions: rated about 2-3 weeks after treatment, scale 0-9, averaged
# Procedure: as §2
# ECHCG (Barnyardgrass) [13] = experiment: Preemergence herbicidal evaluation; format: in vivo, Echinochloa crus-galli, (L.) Beau; conditions: rated about 2-4 weeks after treatment, scale 0-9
# Source text: as §1
# ECHCG (Barnyardgrass) [14] = experiment: Postemergence herbicidal evaluation; format: in vivo, Echinochloa crus-galli, (L.) Beau; conditions: rated about 2-3 weeks after treatment, scale 0-9, averaged
# Procedure: as §2
SMILES,Herbicide rating IPOHE ([1]; 0.050 kg/ha),Herbicide rating IPOHE ([1]; 0.100 kg/ha),"Herbicide rating PANDI (PANDI (Panicum, Fall) [2]; 0.050 kg/ha)","Herbicide rating PANDI (PANDI (Panicum, Fall) [2]; 0.100 kg/ha)",Herbicide rating ABUTH (ABUTH (Velvetleaf) [3]; 0.050 kg/ha),Herbicide rating ABUTH (ABUTH (Velvetleaf) [3]; 0.100 kg/ha),Herbicide rating ABUTH (ABUTH (Velvetleaf) [4]; 0.050 kg/ha),Herbicide rating ABUTH (ABUTH (Velvetleaf) [4]; 0.100 kg/ha),Herbicide rating IPOHE ([5]; 0.050 kg/ha),Herbicide rating IPOHE ([5]; 0.100 kg/ha),"Herbicide rating AMBEL (AMBEL (Ragweed, Common) [6]; 0.050 kg/ha)","Herbicide rating AMBEL (AMBEL (Ragweed, Common) [6]; 0.100 kg/ha)","Herbicide rating PANDI (PANDI (Panicum, Fall) [7]; 0.050 kg/ha)","Herbicide rating PANDI (PANDI (Panicum, Fall) [7]; 0.100 kg/ha)","Herbicide rating AMBEL (AMBEL (Ragweed, Common) [9]; 0.050 kg/ha)","Herbicide rating AMBEL (AMBEL (Ragweed, Common) [9]; 0.100 kg/ha)","Herbicide rating SETVI (SETVI (Foxtail, Green) [11]; 0.050 kg/ha)","Herbicide rating SETVI (SETVI (Foxtail, Green) [11]; 0.100 kg/ha)","Herbicide rating SETVI (SETVI (Foxtail, Green) [12]; 0.050 kg/ha)","Herbicide rating SETVI (SETVI (Foxtail, Green) [12]; 0.100 kg/ha)",also measured
"CCn1ncc(C(=S)c2ccc3c(c2C)/C(=N/OC)CCS3(=O)=O)c1O [Example 1, 6-[(1-Ethyl-5-hydroxypyrazol-4-yl)thicarbonyl]-5-methylthiochroman-4-one (E) -O-Methyloxime, 1,1-Dioxide]",2.5,6.0,6.3,6.5,7.3,9.0,7.6,8.0,2.0,3.0,8.5,8.8,8.0,8.5,8.2,8.4,6.6,8.4,8.5,9.0,"Herbicide rating ZEAMX (crop injury, corn) (ZEAMX (Corn, Field) [8]; preemergence, 0.050 kg/ha, rated about 2-4 weeks after treatment, scale 0-9): 0.0; Herbicide rating ZEAMX (crop injury, corn) (ZEAMX (Corn, Field) [8]; preemergence, 0.100 kg/ha, rated about 2-4 weeks after treatment, scale 0-9): 0.8; Herbicide rating ZEAMX (crop injury, corn) (ZEAMX (Corn, Field) [10]; 0.050 kg/ha): 1.2; Herbicide rating ZEAMX (crop injury, corn) (ZEAMX (Corn, Field) [10]; 0.100 kg/ha): 3.0; Herbicide rating ECHCG (ECHCG (Barnyardgrass) [13]; 0.050 kg/ha): 5.8; Herbicide rating ECHCG (ECHCG (Barnyardgrass) [13]; 0.100 kg/ha): 8.3; Herbicide rating ECHCG (ECHCG (Barnyardgrass) [14]; 0.050 kg/ha): 8.0; Herbicide rating ECHCG (ECHCG (Barnyardgrass) [14]; 0.100 kg/ha): 7.8"
CCn1ncc(C(=S)c2cc(C)c3c(c2C)C(C)(C)CCS3(=O)=O)c1O [Example 2],0.0,0.0,5.0,4.0,3.0,9.0,9.0,9.0,2.0,4.0,2.0,3.0,5.0,7.0,6.0,9.0,4.0,5.0,9.0,9.0,"Herbicide rating ZEAMX (crop injury, corn) (ZEAMX (Corn, Field) [8]; in vivo): 0.0; Herbicide rating ECHCG (ECHCG (Barnyardgrass) [13]; 0.050 kg/ha): 0.0; Herbicide rating ECHCG (ECHCG (Barnyardgrass) [13]; 0.100 kg/ha): 3.0; Herbicide rating ECHCG (ECHCG (Barnyardgrass) [14]; 0.050 kg/ha): 5.0; Herbicide rating ECHCG (ECHCG (Barnyardgrass) [14]; 0.100 kg/ha): 9.0"
